Experimental data: patent publication US10130693B2, “Peptides, combination of peptides and scaffolds for use in immunotherapeutic treatment of various cancers” (Immatics Biotechnologies GmbH, priority 2015, dated 2018)

System: HLA-A*24
Assay: MHC binding assay, UV-ligand exchange with beta2m ELISA (exchange yield), HLA-A*24
Design: species or system human
Conditions: binding to HLA-A*24, UV-ligand exchange
Description: Candidate peptides for T cell based therapies according to the present invention were further tested for their MHC binding capacity (affinity). The individual peptide-MHC complexes were produced by UV-ligand exchange, where a UV-sensitive peptide is cleaved upon UV-irradiation, and exchanged with the peptide of interest as analyzed. Only peptide candidates that can effectively bind and stabilize the peptide-receptive MHC molecules prevent dissociation of the MHC complexes. To determine the yield of the exchange reaction, an ELISA was performed based on the detection of the light chain (β2m) of stabilized MHC complexes. The assay was performed as generally described in Rodenko et al. (Rodenko et al., 2006).
96 well MAXISorp plates (NUNC) were coated over night with 2 ug/ml streptavidin in PBS at room temperature, washed 4× and blocked for 1 h at 37° C. in 2% BSA containing blocking buffer. […] Peptide-MHC monomers of the UV-exchange reaction were diluted 100 fold in blocking buffer. Samples were incubated for 1 h at 37° C., washed four times, incubated with 2 ug/ml HRP conjugated anti-β2m for 1h at 37° C., washed again and detected with TMB solution that is stopped with […]. Absorption was measured at 450 nm. Candidate peptides that show a high exchange yield (preferably higher than 50%, most preferred higher than 75%) are generally preferred for a generation and production of antibodies or fragments thereof, and/or T cell receptors or fragments thereof, as they show sufficient avidity to the MHC molecules and prevent dissociation of the MHC complexes.

Peptide exchange (MHC class I binding score, peptide exchange yield), ++++ (>=75% = ++++):
97 (TYTFLKETF; listed as Homo sapiens) [compound 97], 116 (AYVIAVHLF; listed as Homo sapiens) [compound 116], 128 (VYPFDWQYI; listed as Homo sapiens) [compound 128], 129 (KYIDYLMTW; listed as Homo sapiens) [compound 129], 135 (VYEAMVPLF; listed as Homo sapiens) [compound 135], 148 (SYGTVSQIF; listed as Homo sapiens) [compound 148], 149 (SYGTVSQI; listed as Homo sapiens) [compound 149], 153 (VYVPFGGKSMITF; listed as Homo sapiens) [compound 153], 154 (VYGVPTPHF; listed as Homo sapiens) [compound 154], 173 (QYLEKYYNL; listed as Homo sapiens) [compound 173], 184 (IYSVGAFENF; listed as Homo sapiens) [compound 184], 185 (QYLVHVNDL; listed as Homo sapiens) [compound 185], 187 (AYAANVHYL; listed as Homo sapiens) [compound 187], 196 (GYIRGSWQF; listed as Homo sapiens) [compound 196], 197 (IFTDIFHYL; listed as Homo sapiens) [compound 197], 206 (NYLDVATFL; listed as Homo sapiens) [compound 206]

Peptide exchange (MHC class I binding score, peptide exchange yield), ++ (20%-49% = ++):
123 (VYTPVLEHL; listed as Homo sapiens) [compound 123], 138 (VYNAVSTSF; listed as Homo sapiens) [compound 138], 152 (KFFDDLGDELLF; listed as Homo sapiens) [compound 152], 198 (DYVGFTLKI; listed as Homo sapiens) [compound 198]

Peptide exchange (MHC class I binding score, peptide exchange yield), + (<20% = +):
124 (TYKDYVDLF; listed as Homo sapiens) [compound 124]

Peptide exchange (MHC class I binding score, peptide exchange yield), +++ (50%-75% = +++):
100 (VYIESRIGTSTSF; listed as Homo sapiens) [compound 100], 108 (PYLVVIHTL; listed as Homo sapiens) [compound 108], 113 (IYSFHTLSF; listed as Homo sapiens) [compound 113], 117 (IYLSDLTYI; listed as Homo sapiens) [compound 117], 118 (KYLNSVQYI; listed as Homo sapiens) [compound 118], 121 (RYGLPAAWSTF; listed as Homo sapiens) [compound 121], 125 (VFSRDFGLLVF; listed as Homo sapiens) [compound 125], 127 (QYFTGNPLF; listed as Homo sapiens) [compound 127], 131 (EYLDRIGQLFF; listed as Homo sapiens) [compound 131], 133 (KYLEDMKTYF; listed as Homo sapiens) [compound 133], 134 (AYIPTPIYF; listed as Homo sapiens) [compound 134], 136 (IYPEWPVVFF; listed as Homo sapiens) [compound 136], 141 (SYNGHLTIWF; listed as Homo sapiens) [compound 141], 143 (KYIFQLNEI; listed as Homo sapiens) [compound 143], 145 (VYALKVRTI; listed as Homo sapiens) [compound 145], 146 (NYYERIHAL; listed as Homo sapiens) [compound 146], 147 (LYLAFPLAF; listed as Homo sapiens) [compound 147], 159 (IYEETRGVL; listed as Homo sapiens) [compound 159], 165 (EYFTPLLSGQF; listed as Homo sapiens) [compound 165], 169 (NYITGKGDVF; listed as Homo sapiens) [compound 169], 176 (FYINGQYQF; listed as Homo sapiens) [compound 176], 178 (NYSSAVQKF; listed as Homo sapiens) [compound 178], 183 (PYLQDVPRI; listed as Homo sapiens) [compound 183], 188 (GYKTFFNEF; listed as Homo sapiens) [compound 188], 191 (TYPDGTYTGRIF; listed as Homo sapiens) [compound 191], 192 (RYSTFSEIF; listed as Homo sapiens) [compound 192], 193 (LYLENNAQTQF; listed as Homo sapiens) [compound 193], 194 (VYQSLSNSL; listed as Homo sapiens) [compound 194], 195 (AYIKGGWIL; listed as Homo sapiens) [compound 195], 199 (SYLNHLNNL; listed as Homo sapiens) [compound 199], 200 (VFIHHLPQF; listed as Homo sapiens) [compound 200], 201 (GYNPNRVFF; listed as Homo sapiens) [compound 201], 202 (RYVEGIVSL; listed as Homo sapiens) [compound 202], 204 (EYLSTCSKL; listed as Homo sapiens) [compound 204], 205 (VYPVVLNQI; listed as Homo sapiens) [compound 205], 207 (LYSDAFKFIVF; listed as Homo sapiens) [compound 207]
